Measured values reported in patent EP0584797A2, “Novel cephalosporin compounds and processes for the preparation thereof” (LUCKY LTD., priority 1992, dated 1994).
≈ marks a conversion by molar mass, not a printed value.

Columns and labels:
Experiment in all cases: minimal inhibitory concentration, two-fold agar dilution
Type in all cases: cell-based
[1] = tested on: Bacillus megaterium ATCC 9885; details: Priestia megaterium, ATCC9885; Muller-Hinton agar; 37°C; 20 hours; read-out: MIC values against the standard strains
In short: (§1)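 Compounds were serially diluted two-fold into Mueller-Hinton agar, and each plate was spot-inoculated with the test strain at 10⁷ CFU per ml. Plates were incubated at 37°C for 20 hours before MIC values were read.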

[2] = tested on: Escherichia coli ATCC 10536; details: ATCC10536, Muller-Hinton agar, 37°C, 20 hours, read-out: MIC values against the standard strains
In short: as §1

[3] = tested on: Proteus vulgaris ATCC 6059; details: ATCC6059, Muller-Hinton agar, 37°C, 20 hours, read-out: MIC values against the standard strains
In short: as §1

[4] = tested on: Staphylococcus epidermidis ATCC 12228; details: ATCC12228, Muller-Hinton agar, 37°C, 20 hours, read-out: MIC values against the standard strains
In short: as §1

[5] = tested on: Citrobacter freundii ATCC 8090; details: ATCC8090, Muller-Hinton agar, 37°C, 20 hours, read-out: MIC values against the standard strains
In short: as §1

[6] = tested on: Serratia marcescens ATCC 27117; details: ATCC27117, Muller-Hinton agar, 37°C, 20 hours, read-out: MIC values against the standard strains
In short: as §1

[7] = tested on: Proteus mirabilis ATCC 25933; details: ATCC25933, Muller-Hinton agar, 37°C, 20 hours, read-out: MIC values against the standard strains
In short: as §1

[8] = tested on: Acinetobacter calcoaceticus ATCC 15437; details: ATCC15437, Muller-Hinton agar, 37°C, 20 hours, read-out: MIC values against the standard strains
In short: as §1

[9] = tested on: Providencia rettgeri ATCC 9250; details: ATCC9250, Muller-Hinton agar, 37°C, 20 hours, read-out: MIC values against the standard strains
In short: as §1

[10] = tested on: Bacillus cereus ATCC 11778; details: ATCC11778, Muller-Hinton agar, 37°C, 20 hours, read-out: MIC values against the standard strains
In short: as §1

[11] = tested on: Staphylococcus aureus ATCC 10537; details: ATCC10537, Muller-Hinton agar, 37°C, 20 hours, read-out: MIC values against the standard strains
In short: as §1

[12] = tested on: Enterobacter cloacae ATCC 27508; details: ATCC27508, Muller-Hinton agar, 37°C, 20 hours, read-out: MIC values against the standard strains
In short: as §1

[13] = tested on: Micrococcus luteus ATCC 9341; details: ATCC9341, Muller-Hinton agar, 37°C, 20 hours, read-out: MIC values against the standard strains
In short: as §1

[14] = tested on: Pseudomonas aeruginosa ATCC 25619; details: ATCC25619, Muller-Hinton agar, 37°C, 20 hours, read-out: MIC values against the standard strains
In short: as §1

[15] = tested on: Klebsiella pneumoniae ATCC 10031; details: ATCC10031, Muller-Hinton agar, 37°C, 20 hours, read-out: MIC values against the standard strains
In short: as §1

[16] = tested on: Shigella sonnei ATCC 11060; details: ATCC11060, Muller-Hinton agar, 37°C, 20 hours, read-out: MIC values against the standard strains
In short: as §1

[17] = tested on: Salmonella typhimurium ATCC 14028; details: Salmonella enterica; Muller-Hinton agar; 37°C; 20 hours; read-out: MIC values against the standard strains
In short: as §1

[18] = tested on: Staphylococcus aureus ATCC 6538p; details: ATCC6538P, Muller-Hinton agar, 37°C, 20 hours, read-out: MIC values against the standard strains
In short: as §1

[19] = tested on: Streptococcus faecalis ATCC 29212; details: Enterococcus faecalis, ATCC29212; Muller-Hinton agar; 37°C; 20 hours; read-out: MIC values against the standard strains
In short: as §1

[20] = tested on: Pseudomonas aeruginosa ATCC 10145; details: ATCC10145, Muller-Hinton agar, 37°C, 20 hours, read-out: MIC values against the standard strains
In short: as §1

[21] = tested on: Pseudomonas aeruginosa ATCC 27853; details: ATCC27853, Muller-Hinton agar, 37°C, 20 hours, read-out: MIC values against the standard strains
In short: as §1

[22] = tested on: Enterobacter aerogenes ATCC 29751; details: Klebsiella aerogenes, ATCC29751; Muller-Hinton agar; 37°C; 20 hours; read-out: MIC values against the standard strains
In short: as §1

[23] = tested on: Shigella flexneri ATCC 11836; details: ATCC11836, Muller-Hinton agar, 37°C, 20 hours, read-out: MIC values against the standard strains
In short: as §1

[24] = tested on: Escherichia coli ATCC 25922; details: ATCC25922, Muller-Hinton agar, 37°C, 20 hours, read-out: MIC values against the standard strains
In short: as §1

[25] = tested on: Morganella morganii ATCC 8076h; details: ATCC8076H, Muller-Hinton agar, 37°C, 20 hours, read-out: MIC values against the standard strains
In short: as §1

| Structure (SMILES) | MIC [1] | MIC [2] | MIC [3] | MIC [4] | MIC [5] | MIC [6] | MIC [7] | MIC [8] | MIC [9] | MIC [10] | MIC [11] | MIC [12] | MIC [13] | MIC [14] | MIC [15] | MIC [16] | MIC [17] | MIC [18] | MIC [19] | MIC [20] | also measured |
| --- | --- | --- | --- | --- | --- | --- | --- | --- | --- | --- | --- | --- | --- | --- | --- | --- | --- | --- | --- | --- | --- |
| C[n+]1c(SCC2=C(C(=O)[O-])N3C(=O)[C@@H](NC(=O)/C(=N\O)c4csc(N)n4)[C@H]3SC2)nc(N)c(N)c1N [Example 9, 7-[(Z)-2-(2-aminothiazol-4-yl)-2-oxyiminoacetamido]-3-(4,5,6-triamino-1-methylpyrimidinium-2-yl)thiomethyl-3-cephem-4-carboxylate] | 0.063 µg/mL (≈ 0.114 µM) | 0.031 µg/mL (≈ 0.0561 µM) | 0.063 µg/mL (≈ 0.114 µM) | 0.063 µg/mL (≈ 0.114 µM) | 0.016 µg/mL (≈ 0.029 µM) | 0.25 µg/mL (≈ 0.452 µM) | 0.031 µg/mL (≈ 0.0561 µM) | 0.13 µg/mL (≈ 0.235 µM) | ≤ 0.008 µg/mL | 16 µg/mL (≈ 29 µM) | 0.13 µg/mL (≈ 0.235 µM) | ≤ 0.008 µg/mL | 0.031 µg/mL (≈ 0.0561 µM) | 64 µg/mL (≈ 116 µM) | 0.031 µg/mL (≈ 0.0561 µM) | 0.25 µg/mL (≈ 0.452 µM) | 0.25 µg/mL (≈ 0.452 µM) | 0.25 µg/mL (≈ 0.452 µM) | 2 µg/mL (≈ 3.62 µM) | 128 µg/mL (≈ 232 µM) | MIC [21]: 128 µg/mL (≈ 232 µM); MIC [22]: 0.016 µg/mL (≈ 0.029 µM); MIC [23]: 0.063 µg/mL (≈ 0.114 µM); MIC [24]: 0.031 µg/mL (≈ 0.0561 µM); MIC [25]: ≤ 0.008 µg/mL |
| COc1cc(N)nc(SCC2=C(C(=O)[O-])N3C(=O)[C@@H](NC(=O)/C(=N\OC(C)(C)C(=O)O)c4csc(N)n4)[C@H]3SC2)[n+]1C [Example 17, 7-[(Z)-2-(2-aminothiazol-4-yl)-2-(carboxyprop-2-oxyimino)acetamido]-3-(4-amino-6-methoxy-1-methylpyrimidinium-2-yl)thiomethyl-3-cephem-4-carboxylate] | 0.25 µg/mL (≈ 0.391 µM) | 0.063 µg/mL (≈ 0.0986 µM) | 0.13 µg/mL (≈ 0.204 µM) | 1 µg/mL (≈ 1.57 µM) | 0.13 µg/mL (≈ 0.204 µM) | 0.25 µg/mL (≈ 0.391 µM) | 0.063 µg/mL (≈ 0.0986 µM) | 2 µg/mL (≈ 3.13 µM) | 0.13 µg/mL (≈ 0.204 µM) | 128 µg/mL (≈ 200 µM) | 1 µg/mL (≈ 1.57 µM) | 0.016 µg/mL (≈ 0.0251 µM) | 0.5 µg/mL (≈ 0.783 µM) | 1 µg/mL (≈ 1.57 µM) | 0.063 µg/mL (≈ 0.0986 µM) | 0.13 µg/mL (≈ 0.204 µM) | 0.25 µg/mL (≈ 0.391 µM) | 4 µg/mL (≈ 6.26 µM) | > 128 µg/mL | 4 µg/mL (≈ 6.26 µM) | MIC [21]: 2 µg/mL (≈ 3.13 µM); MIC [22]: 4 µg/mL (≈ 6.26 µM); MIC [23]: 0.031 µg/mL (≈ 0.0485 µM); MIC [24]: 0.13 µg/mL (≈ 0.204 µM); MIC [25]: 0.016 µg/mL (≈ 0.0251 µM) |
| CC[n+]1ccc(N)nc1SCC1=C(C(=O)[O-])N2C(=O)[C@@H](NC(=O)/C(=N\OC(C)(C)C(=O)O)c3csc(N)n3)[C@H]2SC1 [Example 12, 7-[(Z)-2-(2-aminothiazol-4-yl)-2-(carboxyprop-2-oxyimino)acetamido]-3-(4-amino-1-ethylpyrimidinium-2-yl)thiomethyl-3-cephem-4-carboxylate] | 0.5 µg/mL (≈ 0.803 µM) | 0.063 µg/mL (≈ 0.101 µM) | 1 µg/mL (≈ 1.61 µM) | 2 µg/mL (≈ 3.21 µM) | 0.13 µg/mL (≈ 0.209 µM) | 0.5 µg/mL (≈ 0.803 µM) | 1 µg/mL (≈ 1.61 µM) | 8 µg/mL (≈ 12.8 µM) | ≤ 0.008 µg/mL | 128 µg/mL (≈ 206 µM) | 2 µg/mL (≈ 3.21 µM) | 0.031 µg/mL (≈ 0.0498 µM) | 0.5 µg/mL (≈ 0.803 µM) | 2 µg/mL (≈ 3.21 µM) | ≤ 0.008 µg/mL | 0.5 µg/mL (≈ 0.803 µM) | 1 µg/mL (≈ 1.61 µM) | 4 µg/mL (≈ 6.42 µM) | 64 µg/mL (≈ 103 µM) | 16 µg/mL (≈ 25.7 µM) | MIC [21]: 8 µg/mL (≈ 12.8 µM); MIC [22]: 2 µg/mL (≈ 3.21 µM); MIC [23]: 0.25 µg/mL (≈ 0.401 µM); MIC [24]: 0.063 µg/mL (≈ 0.101 µM); MIC [25]: 0.016 µg/mL (≈ 0.0257 µM) |
